Entries after “also recorded” stand apart in the source; their conditions may differ.
How the values were obtained:
[1] = tested on: HeLa nuclear KDACs; assay: Fluor-de-Lys HDAC fluorometric activity assay with HeLa nuclear extract; type: biochemical; conditions: for IC50: HeLa nuclear extract, up to 20 µM, read-out: HDAC Inhibition IC50; for IC20: concentration inhibiting HDAC activity by 20%, read-out: HDAC Inhibition IC20
Method: Total zinc-dependent KDAC (classes I, II and IV) activity was measured using the Fluor-de-Lys^TM HDAC fluorometric activity assay kit (BioMol, Exeter, UK), as per manufacturers protocol. Briefly, HeLa nuclear extract, potential inhibitor (5 nM–20 μM) and assay buffer were incubated in a 96-well fluorometric plate at 37 °C for 15 min. Acetylated substrate (100 μM) was added and the mixture incubated at 37 °C for a further 20 min. The developer was added and the mixture incubated at 37 °C for a further 15 min. Fluorescence was measured using a microplate reader (λex = 360 nm, λem = 460 nm). Percentage KDAC activity and thus KDAC inhibition was determined by quantification of fluorescence obtained in the presence versus absence of the respective inhibitor.

[2] = tested on: AC16 ventricular cardiac cell line; assay: MTT cellular viability assay, AC16; type: cell-based; conditions: Homo sapiens, 96 h, single concentration 10 µM
Method: The human A2780 ovarian (#93112519) and MCF-7 breast (#86012803) cancer cell lines were obtained from the European Cell Culture Collection (ECACC; Salisbury, UK). The human cardiac ventricular AC16 cell line (#SCC109) was obtained from Merck/Millipore (UK). The A2780 and MCF-7 cell lines were maintained in RPMI-1640 medium and the AC16 cell line was maintained in DMEM/F12 medium. Culture medium of all three cell lines was supplemented with 10% heat-inactivated foetal bovine serum (FBS) and 2 mM L-glutamine, with the cells maintained in a humidified 5% CO2 atmosphere at 37 °C. The media was changed every 72h and the cells passaged via trypsinisation (Trypsin EDTA, 0.25%) before reaching confluency.
Cytotoxicity of each compound against the cell lines was assessed using the MTT assay. Cells were seeded in three replicates into 96-well plates at a density of 2 × 10^3/well for 24h to facilitate cell attachment. Media was replaced with that containing either test compound (0–10µM) for A2780 and MCF7 cell lines, single concentration (10 µM) test compound for AC16 cell line, or drug vehicle (dimethyl sulphoxide; DMSO) and the cells incubated for a further 96 h at 37 °C in a humidified 5% CO2 atmosphere. […] Chemosensitivity was thereafter assessed using a standard 3-[4, 5-dimethylthiazolyl]-2,5-diphenyltetrazolium bromide (MTT) assay, with the optical density determined at 540 nm as an indicator of cellular viability.

[3] = tested on: K562; assay: NCI-60 cytotoxicity screen; type: cell-based; conditions: Homo sapiens, NCI-60, 48 h, leukaemia
[4] = tested on: A498; assay: NCI-60 cytotoxicity screen; type: cell-based; conditions: Homo sapiens, NCI-60, 48 h, renal
Description: (§1) Compounds 3–7 were submitted to the US National Cancer Institute (NIH, Bethesda, Maryland) for screening against the NCI-60 panel of human cancer cell lines, as per standard protocol.

[5] = tested on: BT 549; assay: NCI-60 cytotoxicity screen; type: cell-based; conditions: Homo sapiens, NCI-60, 48 h, breast
Description: as §1

[6] = tested on: CAKI-1; assay: NCI-60 cytotoxicity screen; type: cell-based; conditions: Homo sapiens, NCI-60, 48 h, renal
Description: as §1

[7] = tested on: EKVX; assay: NCI-60 cytotoxicity screen; type: cell-based; conditions: Homo sapiens, NCI-60, 48 h, NSCLC
Description: as §1

[8] = tested on: H226; assay: NCI-60 cytotoxicity screen; type: cell-based; conditions: Homo sapiens, NCI-60, 48 h, NSCLC
Description: as §1

[9] = tested on: H522; assay: NCI-60 cytotoxicity screen; type: cell-based; conditions: Homo sapiens, NCI-60, 48 h, NSCLC
Description: as §1

[10] = tested on: HOP-92; assay: NCI-60 cytotoxicity screen; type: cell-based; conditions: Homo sapiens, NCI-60, 48 h, NSCLC
Description: as §1

[11] = tested on: HT29; assay: NCI-60 cytotoxicity screen; type: cell-based; conditions: Homo sapiens, HT-29; NCI-60, 48 h, colon
Description: as §1

[12] = tested on: MALME-3M; assay: NCI-60 cytotoxicity screen; type: cell-based; conditions: Homo sapiens, read-out: MALME-3M cytotoxicity IC50, NCI-60, 48 h, melanoma
Description: as §1

[13] = tested on: MDA-MB-435; assay: NCI-60 cytotoxicity screen; type: cell-based; conditions: Homo sapiens, NCI-60, 48 h, melanoma
Description: as §1

[14] = tested on: MOLT-4; assay: NCI-60 cytotoxicity screen; type: cell-based; conditions: Homo sapiens, NCI-60, 48 h, leukaemia
Description: as §1

[15] = tested on: NCI/ADR-RES; assay: NCI-60 cytotoxicity screen; type: cell-based; conditions: Homo sapiens, NCI-60, 48 h, ovarian
Description: as §1

[16] = tested on: OVCAR-3; assay: NCI-60 cytotoxicity screen; type: cell-based; conditions: Homo sapiens, NCI-60, 48 h, ovarian
Description: as §1

[17] = tested on: RXF 393; assay: NCI-60 cytotoxicity screen; type: cell-based; conditions: Homo sapiens, NCI-60, 48 h, renal
Description: as §1

[18] = tested on: SK-MEL-2; assay: NCI-60 cytotoxicity screen; type: cell-based; conditions: Homo sapiens, NCI-60, 48 h, melanoma
Description: as §1

[19] = tested on: SK-OV-3; assay: NCI-60 cytotoxicity screen; type: cell-based; conditions: Homo sapiens, NCI-60, 48 h, ovarian
Description: as §1

[20] = tested on: SN12C; assay: NCI-60 cytotoxicity screen; type: cell-based; conditions: Homo sapiens, NCI-60, 48 h, renal
Description: as §1

[21] = tested on: SNB-19; assay: NCI-60 cytotoxicity screen; type: cell-based; conditions: Homo sapiens, NCI-60, 48 h, CNS
Description: as §1

[22] = tested on: SNB-75; assay: NCI-60 cytotoxicity screen; type: cell-based; conditions: Homo sapiens, NCI-60, 48 h, CNS
Description: as §1

[23] = tested on: SW620; assay: NCI-60 cytotoxicity screen; type: cell-based; conditions: Homo sapiens, SW-620; NCI-60, 48 h, colon
Description: as §1

[24] = tested on: MDA-MB-231; assay: NCI-60 cytotoxicity screen; type: cell-based; conditions: Homo sapiens, MDA-MB-231, read-out: MDA-MB-231 cytotoxicity IC50; NCI-60, 48 h, breast
[25] = tested on: acetylated tubulin; assay: Flow cytometric analysis of tubulin acetylation in A2780 cells; type: cell-based, human; conditions: A2780, 24 h, 10 µM
Method: The method was adapted from Ronzoni et al.[67] as previously described. A2780 cells were exposed to test compounds (0–10 µM) for 24 h, fixed with ice-cold ethanol (70% v/v) and permeabilised in the presence of 0.1% Triton-X. Non-specific protein binding was blocked using normal goat serum prior to incubation with or without primary antibodies raised against either anti-hyperacetylated Histone H4 (Penta) antibody (Upstate Biotechnology, USA) or acetylated tubulin (Sigma-Aldrich, UK), followed by incubation with FITC-conjugated secondary antibody (Dako). Cells were incubated in propidium iodide (PI) staining buffer (PBS with 50 µg/ml PI and 10 µg/ml RNase A) and subsequently analysed by flow cytometry (BD FACSCalibur; Becton Dickinson, UK). At least 15 000 events per sample were acquired and expression determined based on the detection of FITC fluorescence through the FL1 channel (530/30 nm bandpass optical filter), with cell doublets discriminated by forward/side scatter and background fluorescence omitted via comparison to unlabelled controls. Expression analysis was performed using CellQuest™ software (Becton Dickinson, UK).

| IC50 [1] [nM] | SMILES | IC20 [1] [nM] | IC50 [2] [nM] | IC50 [4] [nM] | IC50 [5] [nM] | IC50 [6] [nM] | IC50 [7] [nM] | IC50 [8] [nM] | IC50 [9] [nM] | IC50 [10] [nM] | IC50 [11] [nM] | IC50 [13] [nM] | IC50 [15] [nM] | IC50 [16] [nM] | IC50 [17] [nM] | IC50 [18] [nM] | IC50 [20] [nM] | IC50 [21] [nM] | IC50 [22] [nM] | IC50 [23] [nM] | further results |
| --- | --- | --- | --- | --- | --- | --- | --- | --- | --- | --- | --- | --- | --- | --- | --- | --- | --- | --- | --- | --- | --- |
| > 20000 | C=C(CN1CCN(c2ccccc2C(F)(F)F)CC1)c1ccc(C(=O)Nc2ccccc2N)cc1 [Compound 3, N-(2-aminophenyl)-4–(3-(4–(2-(trifluoromethyl)phenyl)piperazin-1-yl)prop-1-en-2-yl)benzamide] | 1500 ± 800 | > 10000 | 3550 | 2670 | 7960 | 6700 | 7780 | 1910 | 1850 | 4090 | 2720 | 1870 | 5920 | 1670 | 10300 | 6430 | 24400 | 2820 | 3400 | IC50 [3]: 1540 nM; IC50 [12]: 4180 nM; IC50 [14]: 130 nM; IC50 [19]: 11000 nM; IC50 [24]: 4680 nM |
| > 20000 | C=C(CN1CCN(c2cccc(C(F)(F)F)c2)CC1)c1ccc(C(=O)Nc2ccccc2N)cc1 [Compound 4, N-(2-aminophenyl)-4–(3-(4–(3-(trifluoromethyl)phenyl)piperazin-1-yl)prop-1-en-2-yl)benzamide] | 5000 ± 1500 | > 10000 | 10 | 330 | 630 | 2920 | 1890 | 6140 | 1510 | 1460 | 140 | 110 | 550 | 1620 | 3440 | 290 | 4100 | 10 | 1280 | IC50 [3]: 180 nM; IC50 [14]: 130 nM; IC50 [24]: 940 nM |
| > 20000 | C=C(CN1CCN(c2ccccn2)CC1)c1ccc(C(=O)Nc2ccccc2N)cc1 [Compound 6, N-(2-aminophenyl)-4–(3-(4-(pyridin-2-yl)piperazin-1-yl)prop-1-en-2-yl)benzamide] | > 10000 | > 10000 |  | 3940 | 1190 | 5330 |  | 1560 | 5700 |  | 530 | 1310 | 1240 | 1550 | 1870 | 2360 | 4860 | 1480 | 1710 | IC50 [3]: 960 nM; IC50 [19]: 1300 nM; IC50 [24]: 2170 nM |
| > 20000 | C=C(CN1CCN(c2ccc(C(F)(F)F)cc2)CC1)c1ccc(C(=O)Nc2ccccc2N)cc1 [Compound 5, N-(2-aminophenyl)-4–(3-(4–(4-(trifluoromethyl)phenyl)piperazin-1-yl)prop-1-en-2-yl)benzamide] | 5800 ± 1800 | > 10000 | 7670 | 6920 | 6080 | 12400 | 7520 | 1850 | 3940 | 75700 | 25200 | 3370 | 12000 | 1970 | > 100000 | 6370 | 12600 | 12400 | 78900 | IC50 [3]: 300 nM; IC50 [12]: 19300 nM; IC50 [14]: 600 nM; IC50 [19]: 12100 nM; IC50 [24]: 3600 nM |

| SMILES | IC50 [1] [nM] | IC20 [1] [nM] | IC50 [2] [nM] | IC50 [4] [nM] | IC50 [5] [nM] | IC50 [6] [nM] | IC50 [7] [nM] | IC50 [8] [nM] | IC50 [9] [nM] | IC50 [10] [nM] | IC50 [11] [nM] | IC50 [13] [nM] | IC50 [15] [nM] | IC50 [16] [nM] | IC50 [17] [nM] | IC50 [18] [nM] | IC50 [20] [nM] | IC50 [21] [nM] | IC50 [22] [nM] | IC50 [23] [nM] | further results |
| --- | --- | --- | --- | --- | --- | --- | --- | --- | --- | --- | --- | --- | --- | --- | --- | --- | --- | --- | --- | --- | --- |
| C=C(CN1CCN(c2cccc(C(F)(F)F)n2)CC1)c1ccc(C(=O)Nc2ccccc2N)cc1 [Compound 7, N-(2-aminophenyl)-4–(3-(4–(6-(trifluoromethyl)pyridin-2-yl)piperazin-1-yl)prop-1-en-2-yl)benzamide] | > 20000 | 800 ± 200 | > 10000 | 970 | 920 | 510 | 24300 | 13400 | 1110 |  | 560 | 270 | 640 | 260 | 670 | 5650 | 3790 | 650 | 670 | 530 | IC50 [12]: 1060 nM; IC50 [14]: 860 nM; IC50 [19]: 2550 nM; IC50 [24]: 4620 nM; tubulin acetylation (flow cytometry) [25]: No change in Tubulin acetylation status; also recorded: neither 1 nor 7 induced a measurable change in tubulin acetylation |
| Nc1ccccc1NC(=O)c1ccc(CNC(=O)OCc2cccnc2)cc1 [Compound 1, Entinostat, reference compound] | 3000 ± 200 |  |  | 360 | 4140 | 1170 | 3260 | 600 | 700 | 40 | 1030 | 960 | 2380 | 1740 | 1490 | 1100 | 9400 | 6340 | 5070 | 1300 | IC50 [12]: 580 nM; IC50 [14]: 1930 nM; IC50 [19]: 2750 nM; tubulin acetylation (flow cytometry) [25]: No change in Tubulin acetylation status; also recorded: neither 1 nor 7 induced a measurable change in tubulin acetylation |
